This note sets out measurements from ChEMBL document CHEMBL1201862, “PubChem BioAssay data set” (2004).

Activity calls are given as the source filed them.

For assay [1], the target named is Large T antigen (Simian virus 40, UniProt P03070). The class given is functional, Betapolyomavirus macacae.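 Note: Confirmatory-stage PubChem screen for compounds that inhibit SV40 T antigen.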
In assay [2] the target is Mannose-6-phosphate isomerase (Homo sapiens, UniProt P34949). The assay is described as follows: human PMI inhibitors, high substrate, primary screen, biochemical, fluorescence intensity, high mannose 6-phosphate (AID 1220).
For assay [3], the target named is Eukaryotic translation initiation factor 4E (Mus musculus, UniProt P63073). The assay is described as follows: eIF4E–eIF4G protein interaction inhibitors, dose response, biochemical, TR-FRET (AID 855).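 Note: potency for disrupting eIF4E binding to eIF4GI seen as loss of FRET.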 The class given is functional.
Assay [4] concerns the target DNA dC->dU-editing enzyme APOBEC-3G (Homo sapiens, UniProt Q9HC16). The experiment in a line: Dose Response confirmation of small molecule APOBEC3G DNA Deaminase Inhibitors via a fluorescence-based single-stranded DNA deaminase assay. [Related pubchem assays (depositor defined):AID493012, AID493028]. The class given is functional.
Assay [5] concerns the target Kallikrein-7 (Homo sapiens, UniProt P49862). The experiment in a line: Fluorescence Intensity-based biochemical primary high throughput dose response assay to identify activators of kallikrein-7 (K7) zymogen.
Assay [6] has as its target T1, Methionyl-tRNA synthetase, putative (Trypanosoma brucei brucei, UniProt Q38C91).
T1 sequence (Q38C91 whole entry): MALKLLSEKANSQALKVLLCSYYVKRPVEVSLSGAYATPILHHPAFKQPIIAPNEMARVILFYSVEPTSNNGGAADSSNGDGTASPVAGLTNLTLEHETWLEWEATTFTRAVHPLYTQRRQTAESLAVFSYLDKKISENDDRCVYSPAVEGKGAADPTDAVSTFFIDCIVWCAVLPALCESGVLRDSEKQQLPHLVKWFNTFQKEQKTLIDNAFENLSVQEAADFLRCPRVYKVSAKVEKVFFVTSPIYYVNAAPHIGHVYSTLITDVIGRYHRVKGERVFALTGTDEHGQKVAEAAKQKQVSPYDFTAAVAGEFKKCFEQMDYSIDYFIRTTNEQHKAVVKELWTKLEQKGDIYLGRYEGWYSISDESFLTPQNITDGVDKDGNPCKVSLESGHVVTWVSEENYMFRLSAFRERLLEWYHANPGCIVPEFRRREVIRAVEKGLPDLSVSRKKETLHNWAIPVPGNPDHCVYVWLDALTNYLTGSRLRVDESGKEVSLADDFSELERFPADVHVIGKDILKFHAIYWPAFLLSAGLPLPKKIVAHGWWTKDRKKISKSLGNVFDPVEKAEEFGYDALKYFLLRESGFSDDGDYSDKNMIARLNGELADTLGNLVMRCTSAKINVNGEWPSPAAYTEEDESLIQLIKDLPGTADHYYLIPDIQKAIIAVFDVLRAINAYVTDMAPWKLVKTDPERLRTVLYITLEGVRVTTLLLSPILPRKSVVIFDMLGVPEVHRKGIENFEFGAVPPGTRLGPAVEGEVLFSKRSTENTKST
The class given is functional, Trypanosoma brucei brucei strain 927/4 GUTat10.1.

The nature of assay [7]: Counterscreen for inhibitors of Trypanosoma brucei methionyl tRNA synthetase (MetRS): Luminescence-based cell-based high throughput dose response assay to identify compounds that are cytotoxic to Jurkat human T lymphocyte cells. The class given is functional.
In assay [8] the target is T1, Methionyl-tRNA synthetase, putative. The class given is functional, Trypanosoma brucei brucei strain 927/4 GUTat10.1. This is another data set of the same source.
Assay [9] can be described thus: Late stage counterscreen for inhibitors of Trypanosoma brucei methionyl tRNA synthetase (MetRS): Luminescence-based cell-based high throughput dose response assay to identify compounds that are cytotoxic to Jurkat human T lymphocyte cells. The class given is functional.
The target of assay [10] is T2, Heat shock factor protein 1 (Mus musculus, UniProt P38532).
T2 sequence (P38532 whole entry): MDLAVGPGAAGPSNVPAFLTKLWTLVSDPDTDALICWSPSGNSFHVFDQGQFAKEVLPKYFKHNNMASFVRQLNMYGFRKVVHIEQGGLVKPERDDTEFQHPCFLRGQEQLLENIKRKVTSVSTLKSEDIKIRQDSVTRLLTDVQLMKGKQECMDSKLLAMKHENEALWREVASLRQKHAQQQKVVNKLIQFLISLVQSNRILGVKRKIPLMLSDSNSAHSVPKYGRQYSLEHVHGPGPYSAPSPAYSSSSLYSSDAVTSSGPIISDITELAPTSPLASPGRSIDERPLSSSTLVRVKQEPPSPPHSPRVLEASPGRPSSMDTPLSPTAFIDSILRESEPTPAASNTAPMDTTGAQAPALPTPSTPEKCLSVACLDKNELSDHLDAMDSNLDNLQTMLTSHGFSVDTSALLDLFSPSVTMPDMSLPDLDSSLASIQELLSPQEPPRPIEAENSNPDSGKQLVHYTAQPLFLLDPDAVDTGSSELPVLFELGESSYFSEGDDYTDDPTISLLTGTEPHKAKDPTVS
The assay is described as follows: HSF1 potentiators in luciferase reporter cells, confirmation, cell-based, NIH3T3, luminescence, dose retest (AID 435004).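 Note: stress induced by proteasome inhibitor MG132 added 30 min after compound; luciferase reporter driven by HSF1 response element in NIH3T3 cells; actives raise luminescence as potentiators of the MG132 stress response.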 The class given is functional.

Assay [11] has as its target T3, Beta-lactamase (Pseudomonas aeruginosa, UniProt Q79MP6). The assay is described as follows: IMP-1 metallo-beta-lactamase inhibitors, dose response, selectivity assay for VIM-2 inhibitor project, biochemical, epi-absorbance (AID 1920).
The target in assay [12] is T3, Beta-lactamase. The experiment in a line: […] counterscreen for selective VIM-2 inhibitors: dose response biochemical high throughput screening assay to identify inhibitors of IMP-1 metallo-beta-lactamase.
Assay [13] has as its target Beta-lactamase (Salmonella choleraesuis (strain SC-B67), UniProt Q5J463). The assay is described as follows: Epi-absorbance-based counterscreen for selective VIM-2 inhibitors: dose response biochemical high throughput screening assay to identify inhibitors of TEM-1 serine-beta-lactamase.
Assay [14] has as its target Mitogen-activated protein kinase 10 (Homo sapiens, UniProt P53779). The assay is described as follows: Dose response biochemical screening assay for inhibitors of c-Jun N-Terminal Kinase 3 (JNK3). [Related pubchem assays: 746 ].
Assay [15] deals with Bifunctional protein GlmU (Mycobacterium tuberculosis, UniProt P9WMN3). The assay is described as follows: Inhibitors of Mycobacterial Glucosamine-1-phosphate acetyl transferase (GlmU). Secondary screen. Also on record: species or system Mycobacterium tuberculosis H37Rv.
Assay [16] concerns the target T4, Carboxy-terminal domain RNA polymerase II polypeptide A small phosphatase 1 (Homo sapiens, UniProt Q9GZU7).
T4 sequence (Q9GZU7 whole entry): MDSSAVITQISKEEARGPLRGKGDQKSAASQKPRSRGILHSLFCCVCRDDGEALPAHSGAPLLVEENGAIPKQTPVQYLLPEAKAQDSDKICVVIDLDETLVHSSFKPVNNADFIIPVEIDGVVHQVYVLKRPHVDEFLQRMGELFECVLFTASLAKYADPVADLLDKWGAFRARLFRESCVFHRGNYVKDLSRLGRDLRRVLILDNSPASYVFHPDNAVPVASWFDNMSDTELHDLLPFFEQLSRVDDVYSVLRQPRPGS
The assay is described as follows: inhibitors of CTDSP1, concentration-response testing, biochemical assay, absorbance-based, actives from ultra-high-throughput screening (AID 540297). The class given is functional.

The nature of assay [17]: P. falciparum late gametocyte killing, dose response, luminescence (AID 1117278).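 Note: gametocytes exposed to compound for 24 hours.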 The class given is functional, cell-based.
Assay [18] is described as follows: Jurkat T cell cytotoxicity, dose response, cytotoxicity control for P. falciparum gametocyte viability project, luminescence (AID 1117277).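 Note: potency reflects loss of cellular ATP meaning fewer viable cells.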 The class given is functional, cell-based.

T3 sequence (Q79MP6 whole entry): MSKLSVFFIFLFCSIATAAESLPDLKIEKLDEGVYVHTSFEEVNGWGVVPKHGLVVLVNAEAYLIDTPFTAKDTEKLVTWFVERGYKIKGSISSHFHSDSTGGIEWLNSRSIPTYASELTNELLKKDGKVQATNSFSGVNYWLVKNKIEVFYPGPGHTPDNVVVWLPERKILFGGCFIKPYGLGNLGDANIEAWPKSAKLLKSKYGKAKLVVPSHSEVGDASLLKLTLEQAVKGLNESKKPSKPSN
Sequence of Kallikrein-7 (P49862 whole entry): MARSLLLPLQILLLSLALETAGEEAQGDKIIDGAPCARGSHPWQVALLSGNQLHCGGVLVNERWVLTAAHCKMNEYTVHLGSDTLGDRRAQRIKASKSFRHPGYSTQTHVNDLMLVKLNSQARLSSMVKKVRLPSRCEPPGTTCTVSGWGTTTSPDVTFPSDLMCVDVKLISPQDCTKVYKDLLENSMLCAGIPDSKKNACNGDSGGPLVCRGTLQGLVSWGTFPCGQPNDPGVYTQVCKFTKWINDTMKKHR
Sequence of DNA dC->dU-editing enzyme APOBEC-3G (Q9HC16 whole entry): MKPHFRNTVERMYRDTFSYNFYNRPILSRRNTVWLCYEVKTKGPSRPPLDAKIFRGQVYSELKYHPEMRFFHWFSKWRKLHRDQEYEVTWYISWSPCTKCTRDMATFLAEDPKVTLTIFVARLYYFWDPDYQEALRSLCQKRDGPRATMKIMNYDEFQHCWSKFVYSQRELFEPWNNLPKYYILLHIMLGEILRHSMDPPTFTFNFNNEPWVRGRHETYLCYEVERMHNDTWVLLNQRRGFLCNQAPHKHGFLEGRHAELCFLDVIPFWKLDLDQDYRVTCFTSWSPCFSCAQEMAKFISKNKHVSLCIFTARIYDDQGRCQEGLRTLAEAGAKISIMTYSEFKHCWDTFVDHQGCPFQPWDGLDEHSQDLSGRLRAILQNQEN
Sequence of Mitogen-activated protein kinase 10 (P53779 whole entry): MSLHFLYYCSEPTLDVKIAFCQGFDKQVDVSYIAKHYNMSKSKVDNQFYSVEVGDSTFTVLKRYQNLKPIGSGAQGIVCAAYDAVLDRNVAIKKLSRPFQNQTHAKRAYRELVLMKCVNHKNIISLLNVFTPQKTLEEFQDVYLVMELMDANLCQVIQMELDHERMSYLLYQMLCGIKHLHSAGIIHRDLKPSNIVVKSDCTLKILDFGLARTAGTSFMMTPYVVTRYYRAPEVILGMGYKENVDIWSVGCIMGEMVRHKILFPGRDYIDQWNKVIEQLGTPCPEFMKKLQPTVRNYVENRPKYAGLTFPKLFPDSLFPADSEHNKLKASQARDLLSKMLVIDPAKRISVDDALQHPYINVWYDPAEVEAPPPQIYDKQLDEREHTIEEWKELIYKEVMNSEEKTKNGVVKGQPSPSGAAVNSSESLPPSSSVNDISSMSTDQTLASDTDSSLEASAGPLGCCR
Sequence of Eukaryotic translation initiation factor 4E (P63073 whole entry): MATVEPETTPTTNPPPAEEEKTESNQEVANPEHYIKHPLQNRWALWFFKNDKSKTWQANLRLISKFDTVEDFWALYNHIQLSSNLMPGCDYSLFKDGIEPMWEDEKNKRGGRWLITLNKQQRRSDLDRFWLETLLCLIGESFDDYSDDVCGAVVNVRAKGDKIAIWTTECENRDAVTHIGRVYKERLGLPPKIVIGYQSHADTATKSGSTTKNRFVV
Sequence of Mannose-6-phosphate isomerase (P34949 whole entry): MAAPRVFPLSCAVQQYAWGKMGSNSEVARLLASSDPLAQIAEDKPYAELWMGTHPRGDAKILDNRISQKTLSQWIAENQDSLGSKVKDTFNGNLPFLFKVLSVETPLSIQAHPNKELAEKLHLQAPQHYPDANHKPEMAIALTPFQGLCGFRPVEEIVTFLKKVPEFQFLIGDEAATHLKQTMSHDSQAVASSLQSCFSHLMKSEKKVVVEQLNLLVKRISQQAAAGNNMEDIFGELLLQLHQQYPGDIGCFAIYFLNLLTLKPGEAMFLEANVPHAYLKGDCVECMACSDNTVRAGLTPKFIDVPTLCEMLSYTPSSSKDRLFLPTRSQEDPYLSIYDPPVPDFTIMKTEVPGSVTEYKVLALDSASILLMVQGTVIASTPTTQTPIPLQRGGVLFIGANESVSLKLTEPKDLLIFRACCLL
Sequence of Large T antigen (P03070 whole entry): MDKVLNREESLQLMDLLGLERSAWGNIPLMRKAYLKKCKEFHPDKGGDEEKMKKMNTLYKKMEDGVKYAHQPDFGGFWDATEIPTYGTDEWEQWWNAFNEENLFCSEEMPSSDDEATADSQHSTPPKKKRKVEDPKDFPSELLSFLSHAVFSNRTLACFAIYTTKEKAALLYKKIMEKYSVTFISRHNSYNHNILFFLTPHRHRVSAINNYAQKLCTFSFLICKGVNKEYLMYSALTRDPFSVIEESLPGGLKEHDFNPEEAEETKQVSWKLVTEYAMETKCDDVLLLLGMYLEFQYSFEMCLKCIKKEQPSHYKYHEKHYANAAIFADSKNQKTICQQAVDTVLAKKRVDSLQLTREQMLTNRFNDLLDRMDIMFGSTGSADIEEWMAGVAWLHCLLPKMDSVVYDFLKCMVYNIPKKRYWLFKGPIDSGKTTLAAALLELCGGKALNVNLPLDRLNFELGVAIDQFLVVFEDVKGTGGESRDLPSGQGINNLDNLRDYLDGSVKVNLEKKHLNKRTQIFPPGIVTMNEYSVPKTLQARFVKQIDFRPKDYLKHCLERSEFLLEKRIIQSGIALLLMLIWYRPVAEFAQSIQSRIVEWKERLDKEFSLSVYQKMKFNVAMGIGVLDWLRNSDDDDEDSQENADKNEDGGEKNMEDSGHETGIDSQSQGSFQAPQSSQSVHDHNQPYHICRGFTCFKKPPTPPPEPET
Sequence of Bifunctional protein GlmU (P9WMN3 whole entry, the tested form may be a part): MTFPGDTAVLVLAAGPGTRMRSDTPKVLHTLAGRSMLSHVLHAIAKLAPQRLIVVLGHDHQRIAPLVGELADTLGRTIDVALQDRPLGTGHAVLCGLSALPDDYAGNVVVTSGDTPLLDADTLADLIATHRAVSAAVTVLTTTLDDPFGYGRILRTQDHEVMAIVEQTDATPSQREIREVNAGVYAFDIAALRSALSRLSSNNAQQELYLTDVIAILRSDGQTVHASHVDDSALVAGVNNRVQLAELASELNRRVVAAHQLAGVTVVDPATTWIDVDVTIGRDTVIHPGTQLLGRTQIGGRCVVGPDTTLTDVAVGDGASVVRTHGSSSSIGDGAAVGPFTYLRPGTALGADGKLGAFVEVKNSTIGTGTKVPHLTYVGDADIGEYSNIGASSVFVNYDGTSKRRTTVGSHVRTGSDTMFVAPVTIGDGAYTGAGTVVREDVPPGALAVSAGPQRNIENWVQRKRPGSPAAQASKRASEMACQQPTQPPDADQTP
Sequence of Beta-lactamase (Salmonella choleraesuis (strain SC-B67), UniProt Q5J463) (Q5J463 whole entry): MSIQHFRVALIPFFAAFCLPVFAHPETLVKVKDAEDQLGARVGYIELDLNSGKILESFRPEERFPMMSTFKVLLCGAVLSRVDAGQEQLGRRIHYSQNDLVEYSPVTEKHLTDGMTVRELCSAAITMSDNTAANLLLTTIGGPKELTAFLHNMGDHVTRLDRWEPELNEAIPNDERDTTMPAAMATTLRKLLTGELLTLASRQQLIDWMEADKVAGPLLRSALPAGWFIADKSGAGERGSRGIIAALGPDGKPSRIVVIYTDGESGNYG

Regarding `CC(C)(O)C1Cc2cc(/C=C/C(=O)O)c(O)cc2O1` (stereo not drawn), the IC50 is 38.3 µM (active) in assay [1], 8.63 µM (active) in assay [2], 30.4 µM (active) in assay [3] and 38.2 µM (active) in [4].

`O=C(O)CCN1c2cccc3cccc(c23)S1(=O)=O`: the half-maximal effective concentration (EC50) in [5] was > 7.72 µM (active).

For the molecule `O=C(NCCc1nc2ccccc2[nH]1)c1ccc(Cl)c([N+](=O)[O-])c1`, the IC50 in [6] is 0.17 µM (active); in [7], 44.4 µM (inactive); in assay [8], 0.221 µM (active); in assay [9], > 83.3 µM (inactive). The EC50 in assay [10] is > 260 µM (inactive).

On to `Cc1cc(=O)oc2c3c(cc(OCC(=O)N[C@@H](Cc4ccccc4)C(=O)O)c12)OC(C)(C)CC3`, for which the IC50 in assay [11], in assay [12] and in assay [13] was > 59.6 µM (inactive) throughout. In assay [5], the EC50 was 49 µM (inactive).

On to `O=C(CCCCCn1c(=S)[nH]c2ccccc2c1=O)N1CCC2(CC1)OCCO2`, for which, in [14], the half-inhibitory concentration (IC50) is listed as 29.7 µM (not active).

For `CC1C=CC(C)C(C(=O)O)C1C(=O)O` (stereo not drawn), the IC50 in [15] is 144 µM (active); in assay [16], 4.36 µM (active).

For the molecule `Brc1c[nH]c2nc(SCc3nc4ccccc4[nH]3)nc-2c1`, the IC50 in assay [6] is 4.23 µM (active); in assay [7] it was 83.3 µM (inactive); in [8], 7.89 µM (active); in assay [9] it was > 83.3 µM (inactive).

For the molecule `COc1ccc(-n2c(-c3ccco3)nc3c(cnn3-c3ccccc3C)c2=O)cc1`, the values for the IC50 in assay [17] and in assay [18] were > 109 µM (inactive) and > 83.3 µM (inactive), respectively.
